# Where “and” joins values, the source holds several entries; their conditions need not be identical. Identical values can stand only once. After the bases stand the sugars from the 5' end (letter, count) and the backbone: PS all phosphorothioate, else s phosphorothioate and o phosphodiester by linkage. Methylation of C is not given here. e = 2'-O-(2-methoxyethyl) (MOE); k = constrained ethyl (cEt); d = 2'-deoxy (DNA)
# Target: IRF4
# Conditions: ASO
Sequence,"target mRNA inhibition (MM.1R, 1 µM)","target mRNA inhibition (SK-MEL-28, 4 µM) [%]",also measured
"ACACTTTTAGAGAGGA (sugars k2 d9 e3 k2, PS)",21%,,
"ACACTTTTAGAGAGGA (sugars kkdddddddddekeke, PS)",41%,,
"ACAGAAGGGCAACAGT (sugars k3 d10 k3, PS)",,43,
"ACAGAGGTGGGAGTAC (sugars k3 d10 k3, PS)",,-74,
"ACAGGAGCCGCTACAG (sugars k3 d10 k3, PS)",,31,
"ACAGGCGCGGACGCAC (sugars k3 d10 k3, PS)",,20,
"ACAGTCCACTCCACCC (sugars k3 d10 k3, PS)",14%,,
"ACAGTGACTTGCATCC (sugars kkddddddddddkeke, PS)",30%,,
"ACAGTGACTTGCATCC (sugars kkdddddddddekeke, PS)",9%,,
"ACATATTCAATGCACC (sugars k3 d10 k3, PS)",,47,
"ACATTAAAGGGTAAGC (sugars k3 d10 k3, PS)",-23%,,
"ACATTACTAGATTGTA (sugars k3 d10 k3, PS)",,41,
"ACATTGGTACGGGATT (sugars k3 d10 k3, PS)",2%,,
"ACCAAGAAATGCACCT (sugars k3 d10 k3, PS)",,57,
"ACCAAGCTGGGTTTGC (sugars k3 d10 k3, PS)",,53,
"ACCAATGGCAGCACCG (sugars k3 d10 k3, PS)",,61,
"ACCACAAGCAGTGATG (sugars k3 d10 k3, PS)",1%,,
"ACCACGCCCCTCTCCA (sugars k3 d10 k3, PS)",,9,
"ACCCACATAACTCAGG (sugars k3 d10 k3, PS)",,31,
"ACCCACATCACTGTCT (sugars k3 d10 k3, PS)",,15,
"ACCGAACACACCAGGT (sugars k3 d10 k3, PS)",-14%,,
"ACCTACAAAATGCCTC (sugars k3 d10 k3, PS)",,42,
"ACCTACCTGCCCTTGG (sugars k3 d10 k3, PS)",,28,
"ACCTCAGTTTGTGAAG (sugars k3 d9 k3 e1, PS)",10%,,
"ACCTCAGTTTGTGAAG (sugars kddddddddddkekek, PS)",18%,,
"ACCTCAGTTTGTGAAG (sugars kdddddddddkekeke, PS)",16%,,
"ACCTGGCAACCATTTT (sugars k3 d10 k3, PS)",,4,

Sequence,"target mRNA inhibition (MM.1R, 1 µM)","target mRNA inhibition (SK-MEL-28, 4 µM) [%]",also measured
"ACGAACGCGCAAAACC (sugars k3 d10 k3, PS)",,6,
"ACGACAGCTGCGGAGC (sugars k3 d10 k3, PS)",,27,
"ACGAGGTAAATCTTCA (sugars k3 d10 k3, PS)",,61,
"ACGCAATGGCAAAAGA (sugars k3 d10 k3, PS)",,11,
"ACGCACCATTCAGACA (sugars k3 d10 k3, PS)",,-2,
"ACGCACGGAGAGGGCG (sugars k3 d10 k3, PS)",,1,
"ACGCAGAGCCAGTAGG (sugars k3 d10 k3, PS)",,50,
"ACGGAAGTTTACACTG (sugars e1 k2 d9 k2 e2, PS)",17%,,
"ACGGACGAACGCGCAA (sugars k3 d10 k3, PS)",-7%,,
"ACGGACTGGAACATTG (sugars k3 d10 k3, PS)",38%,,
"ACGGGAATTTCCATTG (sugars k3 d10 k3, PS)",,67,"target mRNA inhibition (SK-MEL-28, 0.185 µM): 11% and 5% and 1%; target mRNA inhibition (SK-MEL-28, 5 µM): 57% and 61% and 82%; target mRNA inhibition (SK-MEL-28, 15 µM): 83% and 79% and 94%"
"ACGTGTGCTTGCCAAG (sugars kkdddddddddkekek, PS)",49% and 44%,,
"ACTAAATTCTAGTTTG (sugars k3 d10 k3, PS)",,0,
"ACTAACTGGCTTCCAG (sugars k3 d10 k3, PS)",,31,
"ACTAATTCCATAGAGC (sugars k3 d10 k3, PS)",-17%,79,"target mRNA inhibition (MM.1R, 0.0625 µM): -18%; target mRNA inhibition (MM.1R, 0.074 µM): -12%; target mRNA inhibition (MM.1R, 0.222 µM): -13%; target mRNA inhibition (MM.1R, 0.25 µM): -12%; target mRNA inhibition (MM.1R, 0.666 µM): -10%; target mRNA inhibition (MM.1R, 2 µM): -4%; target mRNA inhibition (MM.1R, 4 µM): -6%"
"ACTAGATTGTAGGACA (sugars k3 d10 k3, PS)",,-9,
"ACTAGCAGGGCACGCT (sugars k3 d10 k3, PS)",,38,
"ACTCAGCAAGTGTCTT (sugars k3 d10 k3, PS)",,47,
"ACTGAGAGTGCGAGGT (sugars k3 d10 k3, PS)",,-20,
"ACTGAGATATCCTGCA (sugars k3 d10 k3, PS)",,19,
"ACTGAGTACAAACTAA (sugars k3 d10 k3, PS)",,32,
"ACTGCTGTGTGTCAAA (sugars k4 d8 k4, PS)",,19,
"ACTGCTTGAGGTTTTC (sugars kkdddddddddekeke, PS)",40%,,
"ACTGGATATGTGGTGT (sugars k3 d10 k3, PS)",10%,,
"ACTGGCATCGAGACGG (sugars k3 d10 k3, PS)",,79,
"ACTGTAAGGGCTGCTC (sugars k3 d10 k3, PS)",,69,

# — the OligoGym collection
